Values of other authors, collected in patent US12213953B2, “Extended release midodrine hydrochloride compositions and methods of use” (XENAMED CORP., priority 2017, dated 2025).
Structures can show the parent of a compound that is named as a salt.

Assays:
[1] = high water solubility and high permeability
[2] = oral 10 mg immediate release tablet

For COc1ccc(OC)c(C(O)CNC(=O)CN)c1 (racemic) [midodrine HCl, (±)-2-amino-N-[2-(2,5-dimethoxyphenyl)-2-hydroxyethyl]acetamide monohydrochloride], the BCS classification [1] is given as “BCS Class I”.
In the case of COc1ccc(OC)c(C(O)CN)c1 (centres unmarked) [desglymidodrine], the “effect of food on bioavailability of desglymidodrine” value (in vivo) is listed as “not affected by food” and the “first peak blood concentration of desglymidodrine” value [2] is listed as “about 10 ng/mL”.
In the case of COc1ccc(OC)c(C(O)CNC(=O)CN)c1 (centres unmarked) [midodrine], the half-life of midodrine [2] is given as “approximately 25 minutes” and the “time to peak plasma levels of midodrine” value [2] is given as “about 30 minutes”.
